Tests used:
Format in all cases: in vivo, C57BL/6J mice
NAFLD-induced mice [1] = assay: NAFLD activity score (NAS) in mouse model of NAFLD induced by STZ administration and high-fat diet (Example 3); conditions: 10 mg/kg; for Steatosis Score 0 (number of mice): score 0 = <5%; for Hepatocyte Ballooning Score 0 (number of mice): score 0 = None; for Steatosis Score 1 (number of mice): score 1 = 5% to 33%; for Lobular Inflammation Score 1 (number of mice): score 1 = <2 Foci/200×; for Hepatocyte Ballooning Score 1 (number of mice): score 1 = Some balloon cells; for Lobular Inflammation Score 2 (number of mice): score 2 = 2 to 4 Foci/200×; for Lobular Inflammation Score 3 (number of mice): score 3 = >4 Foci/200×
Protocol: Two-day-old C57BL/6J mice were administered with streptozotocin (STZ, 200 μg). Since the time the mice were 5 weeks old, they were supplied with a high-fat diet (60% fat) so as to induce NAFLD. The mouse model is an experimental animal model that is known to be capable of inducing diseases ranging from diabetes, fatty liver, steatohepatitis, liver fibrosis, to liver cancer within a short period of time of 20 weeks of age. Specifically, since the time the mice were 6 weeks old, they were orally administered with vehicle (0.5% hydroxypropyl methylcellulose+0.1% Tween 80) or Compound 1, which were prepared at various concentrations, at each concentration of 1 mg/kg, 3 mg/kg, and 10 mg/kg for 4 weeks, and the livers were removed by autopsy on the final day of the test. Parts of the removed livers were fixed in a 10% formalin solution for histopathology and tissue slides were prepared therefrom and subjected to H&E staining, whereas other parts of the removed livers were used for qRT-PCR analysis. The steatosis scores and relative mRNA expression levels were calculated in the same manner as in Example 1, and the results are shown in FIGS. 3 and 4, respectively. The calculated results were expressed in mean and standard deviation, and the significance of statistical differences between the groups was confirmed using Student's t-test (*; p<0.05).
As in Example 2, vehicle or Compound 1 at a dose of 10 mg/kg was administered to the animal model in which NAFLD was induced by STZ administration and a high-fat diet. […] Additionally, two comparative groups were prepared by administering each of obeticholic acid (OCA, product name: Ocaliva) and compound A (having the same mechanism of action with Compound 1) at a dose of 10 mg/kg each, instead of vehicle or Compound 1. NAS values were respectively calculated for Normal group, the vehicle group, Compound 1 (10 mg/kg) group, and the two comparative groups (OCA-administered and compound A-administered groups), as shown in Table 2. NAS represents the sum of the scores for respective symptoms, i.e., steatosis, lobular inflammation, and hepatocyte ballooning, and the scoring for each symptom was based on the criteria described in Table 1 below. Each group consisted of 8 mice, and the NAS value is defined as the sum of the mean scores from each symptom. As NAS value is higher, NAFLD is more severe. For example, when NAS value is 3 to 4 points, the mouse can be suspected to have non-alcoholic steatohepatitis (NASH), whereas when NAS value is 5 points or higher, the mouse can be determined to have NASH.

NAFLD-induced mice [2] = assay: Degree of liver fibrosis by Sirius Red staining in STZ and high-fat diet NAFLD mouse model (Example 3); conditions: 10 mg/kg; fibrosis area increased by NASH induction; FIG. 6
Protocol: (§1) Two-day-old C57BL/6J mice were administered with streptozotocin (STZ, 200 μg). Since the time the mice were 5 weeks old, they were supplied with a high-fat diet (60% fat) so as to induce NAFLD. The mouse model is an experimental animal model that is known to be capable of inducing diseases ranging from diabetes, fatty liver, steatohepatitis, liver fibrosis, to liver cancer within a short period of time of 20 weeks of age. […] The steatosis scores and relative mRNA expression levels were calculated in the same manner as in Example 1, and the results are shown in FIGS. 3 and 4, respectively. The calculated results were expressed in mean and standard deviation, and the significance of statistical differences between the groups was confirmed using Student's t-test (*; p<0.05).
As in Example 2, vehicle or Compound 1 at a dose of 10 mg/kg was administered to the animal model in which NAFLD was induced by STZ administration and a high-fat diet. […] NAS values were respectively calculated for Normal group, the vehicle group, Compound 1 (10 mg/kg) group, and the two comparative groups (OCA-administered and compound A-administered groups), as shown in Table 2. […] For example, when NAS value is 3 to 4 points, the mouse can be suspected to have non-alcoholic steatohepatitis (NASH), whereas when NAS value is 5 points or higher, the mouse can be determined to have NASH. […]

[3] = tested on: mRNA expression levels of Srebp1, TIMP1 and Col1a1 in liver tissues; assay: Liver mRNA expression by qRT-PCR in mouse model of NAFLD induced by high-fat high-cholesterol diet (Example 1); conditions: 0.016% in diet, 12 weeks; vs Control group; relative to Normal group; FIG. 2
From the text: (§2) Eight-week-old C57BL/6J mice were supplied with a high-fat high-cholesterol diet (60% fat and 0.5% cholesterol) and drinking water containing 4.2% fructose for 16 weeks so as to induce non-alcoholic fatty liver disease (NAFLD).
(§3) After the supply of a high-fat high-cholesterol diet for 4 weeks, the diet was replaced with another high-fat high-cholesterol diet prepared to contain Compound 1 at a concentration of 0.016% and supplied for an additional 12 weeks, and the livers were removed by autopsy on the final day of the test. Parts of the removed livers were fixed in a 10% formalin solution for histopathology and tissue slides were prepared therefrom and subjected to H&E staining, whereas other parts of the removed livers were used for quantitative real-time PCR (qRT-PCR) analysis.
(§4) Furthermore, the relative expression level of mRNA in Normal group was calculated by qRT-PCR. Specifically, the mRNA expression levels of Srebp1 (i.e., a gene marker associated with lipid synthesis), and TIMP1 and Col1a1 (i.e., gene markers associated with fibrosis), etc. were measured through the SYBR-green RT-PCR analysis of the removed liver tissues described above, and the relative expression levels were calculated based on those of Normal group and are shown in FIG. 2. The calculated data were expressed in mean and standard deviation, and the significance of statistical differences between groups was confirmed using Student's t-test (*; p<0.05).

[4] = Blood lipid levels in STZ and high-fat diet NAFLD mouse model (Example 4); conditions: 1 mg/kg, 3 mg/kg, and 10 mg/kg; compared to vehicle administered group; FIG. 7
Protocol: as §1
Blood specimens were secured before autopsy by collecting blood samples from an experimental animal model prepared as in Example 2, in which NAFLD was induced by administering STZ and supplying a high-fat diet, and to which Compound 1 was administered at doses of 1 mg/kg, 3 mg/kg, and 10 mg/kg. The obtained blood samples were centrifuged to separate blood plasma, and the remaining samples were analyzed for blood lipid levels (e.g., levels of total cholesterol, high-density lipoprotein (HDL), and low-density lipoprotein (LDL)) using a biochemical analyzer (Hitachi 7100), and the results are shown in FIG. 7. […]

[5] = tested on: expression levels of the gene (mRNA) associated with lipid synthesis, inflammation, and fibrosis; assay: Liver mRNA expression by qRT-PCR in mouse model of NAFLD induced by STZ administration and high-fat diet (Example 2); conditions: oral, 1 mg/kg, 3 mg/kg, and mg/kg for 4 weeks; vs Control group; FIG. 4
Protocol: as §4
as §1, with “NAFLD.” for “NAFLD. The mouse model is an experimental animal model that is known to be capable of inducing diseases ranging from diabetes, fatty liver, steatohepatitis, liver fibrosis, to liver cancer within a short period of time of 20 weeks of age.”

NAFLD-induced mice [6] = assay: Steatosis score (H&E histology) in mouse model of NAFLD induced by high-fat high-cholesterol diet and fructose drinking water (Example 1); conditions: high-fat high-cholesterol diet containing 0.016% of compound for 12 weeks; vs Control group; FIG. 1
From the text: as §2, §3
The normal mice (not induced with NAFLD, denoted by “Normal” in drawings) and the mice induced with NAFLD using a high-fat high-cholesterol diet and fructose-containing drinking water (denoted by “Control” in drawings) were used as the control group. […]

NAFLD-induced mice [7] = assay: Steatosis score in mouse model of NAFLD induced by STZ administration and high-fat diet (Example 2); conditions: oral, FIG. 3
Protocol: The normal mice (not induced with NAFLD, denoted by “Normal” in drawings) and the mice induced with NAFLD using a high-fat high-cholesterol diet and fructose-containing drinking water (denoted by “Control” in drawings) were used as the control group. Specifically, histological scoring was performed in the same manner as in the clinical pathology scoring as follows: score 0 when the area occupied by fat in the liver tissue is less than 5%, score 1 when the area occupied by fat in the liver tissue is 5% to 33%, score 2 when the area occupied by fat in the liver tissue is 34% to 66%, and score 3 when the area occupied by fat in the liver tissue exceeds 66%.
as §1, with “NAFLD.” for “NAFLD. The mouse model is an experimental animal model that is known to be capable of inducing diseases ranging from diabetes, fatty liver, steatohepatitis, liver fibrosis, to liver cancer within a short period of time of 20 weeks of age.”

| SMILES | Steatosis Score 0 (number of mice) (NAFLD-induced mice [1]; n=8 mice per group) | Hepatocyte Ballooning Score 0 (number of mice) (NAFLD-induced mice [1]; n=8 mice per group) | Steatosis Score 1 (number of mice) (NAFLD-induced mice [1]; n=8 mice per group) | Lobular Inflammation Score 1 (number of mice) (NAFLD-induced mice [1]; n=8 mice per group) | Hepatocyte Ballooning Score 1 (number of mice) (NAFLD-induced mice [1]; n=8 mice per group) | Lobular Inflammation Score 2 (number of mice) (NAFLD-induced mice [1]; n=8 mice per group) | Lobular Inflammation Score 3 (number of mice) (NAFLD-induced mice [1]; n=8 mice per group) | fibrosis area (Sirius Red positive area) (NAFLD-induced mice [2]) | mRNA level of Col1a1 (liver) [3] | mRNA level of Srebp1 (liver) [3] | mRNA level of TIMP1 (liver) [3] | blood level of HDL [4] | blood level of LDL [4] | expression levels of the gene (mRNA) associated with lipid synthesis, inflammation, and fibrosis [5] | steatosis score (NAFLD-induced mice [6]) | NAS (NAFLD activity score) (NAFLD-induced mice [1]; compared to comparative groups OCA and Compound A at identical dose, FIG. 5) | Hepatocyte Ballooning Score 2 (number of mice) (NAFLD-induced mice [1]; n=8 mice per group, score 2 = Many cells/Prominent ballooning) | steatosis score (NAFLD-induced mice [7]; 1 mg/kg, 3 mg/kg and 10 mg/kg for 4 weeks, vs vehicle Control group) | steatosis score (NAFLD-induced mice [7]; dose of 1 mg/kg for 4 weeks, vs vehicle) |
| --- | --- | --- | --- | --- | --- | --- | --- | --- | --- | --- | --- | --- | --- | --- | --- | --- | --- | --- | --- |
| CC[C@H]1[C@@H](O)[C@@H]2[C@H](CC[C@]3(C)[C@@H]([C@H](C)CCC(=O)O)CC[C@@H]23)[C@@]2(C)CC[C@@H](O)C[C@@H]12 [OCA, obeticholic acid, reference compound] | 2 | 4 | 6 | 1 | 4 | 5 | 2 | – | – | – | – | – | – | – | – | – | – | – | – |
| CCCCC1(CCCC)CN(c2ccc(F)cc2)c2cc(SC)c(CNCC(=O)O)cc2S(=O)(=O)C1 [Compound 1, 2-(((3,3-dibutyl-5-(4-fluorophenyl)-7-methylthio-1,1-dioxido-2,3,4,5-tetrahydrobenzo[b][1,4]thiazepin-8-yl)methyl)amino)acetic acid] | 4 | 6 | 4 | 2 | 1 | 5 | 1 | significant decrease in the fibrosis area | remarkable decrease with statistical significance | remarkable decrease with statistical significance | remarkable decrease with statistical significance | higher level of HDL | lower level of LDL | significant decreases | significant decrease in steatosis score close to that of Normal group | significantly reduced NAS values | 1 | lower steatosis scores | reduced steatosis score |
